In PMC4389225, “Triaminopyrimidine is a fast-killing and long-acting antimalarial clinical candidate” (Nature Communications, 2015):
pIC50, pKi: −log10 of the molar value. Like-named read-outs stand apart in the source and are kept apart here.

Tests used:
GPCR [1] = test: Secondary pharmacology panel, target #13
Description: (§1) An in vitro pharmacological profiling panel was specifically designed for the detection of potential high- risk clinical adverse drug reactions. […] For enzyme and kinase assays, the results were expressed as a percent inhibition of control-specific activity obtained in the presence of the test compound. The IC50 values (concentration causing a half-maximal inhibition of control-specific activity) and Hill coefficients (nH) were determined by nonlinear regression analysis of the inhibition/concentration–response curves using Hill equation curve fitting as described earlier[37].
(§2) For assessment of activity against these targets, compounds were tested in an 8-point
(§3) concentration response covering half-log units up to a top test concentration of 100 µM, and
(§4) an IC50 or Ki determined using either radio ligand binding assays or enzyme activity assays.

GPCR [2] = test: Secondary pharmacology panel, target #6
Description: as §1, §2, §3, §4

Enzyme [3] = test: Secondary pharmacology panel, target #19
Description: (§5) For enzyme and kinase assays, the results were expressed as a percent inhibition of control-specific activity obtained in the presence of the test compound. The IC50 values (concentration causing a half-maximal inhibition of control-specific activity) and Hill coefficients (nH) were determined by nonlinear regression analysis of the inhibition/concentration–response curves using Hill equation curve fitting as described earlier[37].
as §2, §3, §4

Ion channel [4] = test: Secondary pharmacology panel, target #17
Description: as §1, §2, §3, §4

[5] = test system: asexual blood stage of Pf; test: Pf asexual blood stage potency (Pf IC50); format: cell-based, Plasmodium falciparum; conditions: for pIC50: Plasmodium falciparum
Source text: The TAPs series emerged from a high-throughput screen (HTS) of 500,000 compounds from the AstraZeneca corporate library against the asexual blood stage of Pf using a high-content image-based approach. The procedure for synthesis of compounds 1-6, 10, 11 using a scheme similar to Fig. 1 is provided in Supplementary Note 1. The initial hit provided multiple diversification points for a robust lead optimization campaign. […] Compounds with 2-pyridyl modification at the 2-amino position of pyrimidine core improved potency and solubility at the cost of potent activity against hERG and acetylcholine esterase (AChE; compounds 3-6; Table 1). […] The observed hERG and AChE selectivity improvement with 7 could be attributed to the polar nature of the pyrazole group and its role in reducing the pKa of the core pyrimidine ring. […] To assess the potential for cross-resistance, representative TAPs were screened against a panel of clinical isolates and in vitro-generated mutant strains displaying varying mechanisms of resistance to antimalarial agents currently in use and under development, respectively, (Supplementary Tables 1–3).

GPCR [6] = test: Secondary pharmacology panel, target #8
Description: as §1, §2, §3, §4

Ion channel [7] = test: Secondary pharmacology panel, target #16
Description: as §1, §2, §3, §4

GPCR [8] = test: Secondary pharmacology panel, target #12
Description: as §1, §2, §3, §4

Enzyme [9] = test: Secondary pharmacology panel, target #24
Description: as §5, §2, §3, §4

α1A adrenoceptor = target: T1, α1A adrenoceptor (Homo sapiens, UniProt P35348); test: α1A adrenoceptor radioligand binding (CEREP)
T1 construct: purchased CEREP, France (external assay service) 2338
T1 sequence (P35348 1-466): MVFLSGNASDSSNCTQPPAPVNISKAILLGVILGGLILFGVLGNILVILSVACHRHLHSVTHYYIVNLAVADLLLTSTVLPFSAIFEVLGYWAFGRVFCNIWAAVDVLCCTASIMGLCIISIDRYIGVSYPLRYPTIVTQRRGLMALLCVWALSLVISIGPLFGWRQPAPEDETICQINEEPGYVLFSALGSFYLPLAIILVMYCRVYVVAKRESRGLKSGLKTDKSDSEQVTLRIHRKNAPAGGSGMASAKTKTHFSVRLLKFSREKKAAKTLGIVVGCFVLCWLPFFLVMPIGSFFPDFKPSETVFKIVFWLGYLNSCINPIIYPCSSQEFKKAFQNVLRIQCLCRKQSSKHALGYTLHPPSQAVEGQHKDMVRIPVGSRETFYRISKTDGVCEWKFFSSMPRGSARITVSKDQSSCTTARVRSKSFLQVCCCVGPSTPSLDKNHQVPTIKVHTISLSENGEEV
Description: An in vitro pharmacological profiling panel was specifically designed for the detection of potential high- risk clinical adverse drug reactions. The panel comprised of 26 diverse targets (6 enzymes, 2 transporters, 9 G-protein-coupled receptors (GPCRs), 5 ion channels along with hERG, M2, alpha1A and AchE) and was conduced externally by CEREP, France […]. […] Detailed methodology for in vitro pharmacological profiling assays provided by CEREP can be found at http://www.cerep.fr, with specific reference to the AChE (cat. no. 0363), Muscarinic M1 receptor (cat. no. 0091) and Adrenergic α1A receptor (cat. no. 2338) assays. For enzyme and kinase assays, the results were expressed as a percent inhibition of control-specific activity obtained in the presence of the test compound. The IC50 values (concentration causing a half-maximal inhibition of control-specific activity) and Hill coefficients (nH) were determined by nonlinear regression analysis of the inhibition/concentration–response curves using Hill equation curve fitting as described earlier.
For radioligand binding assays, the results are expressed as % inhibition of control-specific binding obtained in the presence of the test compounds. The IC50 values (concentration causing a half-maximal inhibition of control-specific binding) and Hill coefficients (nH) were determined by nonlinear regression analysis of the competition curves generated with mean replicate values using Hill equation curve fitting. The inhibition constants (Ki) were subsequently calculated by applying the Cheng Prusoff equation[38].

GPCR [10] = test: Secondary pharmacology panel, target #26
Description: as §1, §2, §3, §4

GPCR [11] = test: Secondary pharmacology panel, target #10
Description: as §1, §2, §3, §4

Ion channel [12] = test: Secondary pharmacology panel, target #2
Description: as §1, §2, §3, §4

hERG = target: T2, hERG (Homo sapiens, UniProt Q12809); test: electrophysiology-based hERG assay using IonWorks HT (CHO cells); format: cell-based
T2 construct: expressed in transfected cells; host or cells: CHO cells
T2 sequence (Q12809 whole entry): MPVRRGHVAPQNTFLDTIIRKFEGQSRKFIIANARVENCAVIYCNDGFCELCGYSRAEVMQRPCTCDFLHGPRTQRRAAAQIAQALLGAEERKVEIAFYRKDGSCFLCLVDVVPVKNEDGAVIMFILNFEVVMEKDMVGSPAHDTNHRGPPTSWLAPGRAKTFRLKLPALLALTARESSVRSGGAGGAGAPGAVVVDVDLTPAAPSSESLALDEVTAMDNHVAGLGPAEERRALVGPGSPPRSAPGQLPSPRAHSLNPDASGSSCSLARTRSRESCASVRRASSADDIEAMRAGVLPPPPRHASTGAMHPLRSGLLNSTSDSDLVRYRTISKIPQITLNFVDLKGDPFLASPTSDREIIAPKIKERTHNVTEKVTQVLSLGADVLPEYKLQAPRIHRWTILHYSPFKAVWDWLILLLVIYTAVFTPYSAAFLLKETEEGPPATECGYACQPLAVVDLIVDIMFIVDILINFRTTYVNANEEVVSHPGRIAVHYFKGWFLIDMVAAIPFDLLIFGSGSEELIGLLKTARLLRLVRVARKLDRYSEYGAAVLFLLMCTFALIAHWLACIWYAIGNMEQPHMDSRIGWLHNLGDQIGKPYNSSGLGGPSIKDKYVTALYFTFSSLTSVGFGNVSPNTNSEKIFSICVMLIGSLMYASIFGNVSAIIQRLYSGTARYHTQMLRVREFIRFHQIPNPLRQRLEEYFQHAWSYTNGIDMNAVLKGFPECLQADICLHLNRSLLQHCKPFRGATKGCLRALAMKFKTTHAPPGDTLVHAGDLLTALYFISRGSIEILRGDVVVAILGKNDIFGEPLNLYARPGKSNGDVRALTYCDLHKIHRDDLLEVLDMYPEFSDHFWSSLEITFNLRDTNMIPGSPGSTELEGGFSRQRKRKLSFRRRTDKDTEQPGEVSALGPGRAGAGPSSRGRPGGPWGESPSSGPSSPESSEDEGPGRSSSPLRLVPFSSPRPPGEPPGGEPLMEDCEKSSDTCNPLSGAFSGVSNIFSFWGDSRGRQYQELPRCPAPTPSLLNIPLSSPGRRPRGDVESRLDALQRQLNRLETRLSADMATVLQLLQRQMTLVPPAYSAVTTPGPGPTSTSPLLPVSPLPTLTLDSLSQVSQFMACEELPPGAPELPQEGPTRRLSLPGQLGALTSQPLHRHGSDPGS
Description: hERG IC50 was determined in an electrophysiology-based hERG assay using IonWorks HT (CHO cells) as described earlier.

Ion channel [13] = test: Secondary pharmacology panel, target #5
Description: as §1, §2, §3, §4

Ion channel [14] = test: Secondary pharmacology panel, target #21
Description: as §1, §2, §3, §4

GPCR [15] = test: Secondary pharmacology panel, target #22
Description: as §1, §2, §3, §4

[16] = Plasma protein binding, human; conditions: for fraction unbound: human, plasma
GPCR 9 = test: Secondary pharmacology panel, target #20
Description: as §5
targets (8 enzymes, 5 ion channels, 10 GPCRs and 2 transporters) and hERG.
as §2, §3, §4

Enzyme [17] = test: Secondary pharmacology panel, target #23
Description: as §5, §2, §3, §4

Transporter = test: Secondary pharmacology panel, target #14
Description: as §1, §2, §3, §4

[18] = Target #18, hERG, read-out: Binding Ki / Enzyme IC50

Compound | Binding Ki / Enzyme IC50 (GPCR [1]) | Binding Ki / Enzyme IC50 (GPCR [2]) | Binding Ki / Enzyme IC50 (Enzyme [3]) | Binding Ki / Enzyme IC50 (Ion channel [4]) | pIC50 [5] | Binding Ki / Enzyme IC50 (GPCR [6]) | Binding Ki / Enzyme IC50 (Ion channel [7]) | Binding Ki / Enzyme IC50 (GPCR [8]) | Binding Ki / Enzyme IC50 (Enzyme [9]) | pIC50 (α1A adrenoceptor) | pKi (α1A adrenoceptor) | Binding Ki / Enzyme IC50 (GPCR [10]) | Binding Ki / Enzyme IC50 (GPCR [11]) | Binding Ki / Enzyme IC50 (Ion channel [12]) | IC50 (hERG; [18]) | pIC50 (hERG; hERG IC50) | Binding Ki / Enzyme IC50 (Ion channel [13]) | Binding Ki / Enzyme IC50 (Ion channel [14]) | Binding Ki / Enzyme IC50 (GPCR [15]) | fraction unbound [16] | pIC50 (hERG; [18]) | further results
Cc1cc(Nc2ncc(N3CCN(C)CC3)c(N3CCCC3)n2)ccn1 [compound 2] | 38.7 µM | 2.695 µM | > 100 µM | 59 µM | 6.22 | 4.735 µM | 33.2 µM | 30.45 µM | > 100 µM | 5.51 | 5.84 | > 100 µM | 8.42 µM | 0.933 µM | 85.02 µM | 4.07 | 3.64 µM | > 100 µM | > 100 µM | 0.402 | – | Selectivity ratio for α1A (IC50 / blood Cmin at ED90 in the Pf/SCID model) (α1A adrenoceptor): < 1; Binding Ki / Enzyme IC50 (GPCR 9): > 100 µM; Binding Ki / Enzyme IC50 (Enzyme [17]): > 100 µM; Binding Ki / Enzyme IC50 (Transporter): 31.45 µM
Cc1nc(Nc2ncc(N3CCN(C)[C@H](C)C3)c(Nc3cc(C)n(C)n3)n2)cc(C2CC2)c1F [compound 12, (R)-N2-(4-cyclopropyl-5-fluoro-6-methylpyridin-2-yl)-N4-(1,5-dimethyl-1H-pyrazol-3-yl)-5-(3,4-dimethylpiperazin-1-yl)pyrimidine-2,4-diamine] | 11.5 µM | 7.82 µM | 14.5 µM | > 100 µM | 8.05 | > 100 µM | > 100 µM | 10.9 µM | > 100 µM | 5.92 | 6.22 | > 100 µM | > 100 µM | 2.62 µM | – | 4.48 | 8.58 µM | > 100 µM | > 100 µM | 0.025 | 4.45 | improvement in Pf potency ([5]; compound 12 versus compound 2): > 60 fold; selectivity ratio (hERG; human, CHO cells that express hERG, relative to Pf potency, read-out: selectivity against hERG): > 1000; Plasma protein binding (% free) ([16]; Human): 2.5 % free; Protein binding (human free) ([16]; Human): 2.5%; reduction in free fraction ([16]; compound 12 versus compound 2): 10 fold; Binding Ki / Enzyme IC50 (GPCR 9): > 100 µM; Binding Ki / Enzyme IC50 (Enzyme [17]): > 100 µM; Binding Ki / Enzyme IC50 (Transporter): 10.1 µM
